This note sets out measurements from US20260226056A1, “SUBSTITUTED 1H-PYRAZOLE-4-CARBOXAMIDES AS SARM1 INHIBITORS” (DISARM THERAPEUTICS, INC., priority 2023, published 2026).

SMILES strings stand for the structures. pIC50: −log10 of the molar value.

This test addresses T1, hSARM1 (Homo sapiens, UniProt Q6SZW1).
T1 construct: This assay makes use of full length SARM1, which encompasses the ARM, SAM and TIR domains; made in house; host or cells: NRK1-HEK293T cells (transient transfection; cleared lysate used as enzyme)
T1 sequence (Q6SZW1 28-724): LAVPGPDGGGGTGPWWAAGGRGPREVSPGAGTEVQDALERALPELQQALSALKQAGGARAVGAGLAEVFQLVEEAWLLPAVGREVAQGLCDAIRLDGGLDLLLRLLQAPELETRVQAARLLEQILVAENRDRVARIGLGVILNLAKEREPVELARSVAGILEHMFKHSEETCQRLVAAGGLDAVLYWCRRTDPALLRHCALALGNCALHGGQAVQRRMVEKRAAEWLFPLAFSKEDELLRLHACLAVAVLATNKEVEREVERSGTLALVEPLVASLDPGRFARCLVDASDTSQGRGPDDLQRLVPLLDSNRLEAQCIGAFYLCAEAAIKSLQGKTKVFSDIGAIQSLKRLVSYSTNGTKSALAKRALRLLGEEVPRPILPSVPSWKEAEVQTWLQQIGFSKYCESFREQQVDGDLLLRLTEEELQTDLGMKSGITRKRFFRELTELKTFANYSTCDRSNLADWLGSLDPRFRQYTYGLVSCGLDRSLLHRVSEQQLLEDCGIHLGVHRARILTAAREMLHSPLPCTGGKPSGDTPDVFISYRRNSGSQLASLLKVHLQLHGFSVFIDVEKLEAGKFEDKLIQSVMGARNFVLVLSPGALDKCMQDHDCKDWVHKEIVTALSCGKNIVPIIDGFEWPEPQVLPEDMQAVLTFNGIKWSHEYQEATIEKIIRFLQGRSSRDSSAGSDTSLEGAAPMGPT
The test is described as follows: ARM-SAM-TIR SARM1 IC50 Assay (NADase activity, NAD+ cleavage, RapidFire MS). Conditions: ARM-SAM-TIR lysate 5 μg/mL, 2 hrs. pre-incubation with compound, 5 μM NAD+, 2 hrs. incubation. It is filed as biochemical. The protocol: This describes an assay of ARM-SAM-TIR NADase activity and use of this assay to measure the efficacy of compounds of the present invention to block SARM1 mediated NAD+ cleavage. This assay was optimized in such a way as to characterize the efficacy of the compounds of the present invention to inhibit SARM1 activity and to calculate an IC50 value for each compound. This assay makes use of full length SARM1, which encompasses the ARM, SAM and TIR domains.
NRK1-HEK293T cells were seeded onto 150 cm^2 plates at 20×10^6 cells per plate. The next day, the cells were transfected with 15 μg ARM-SAM-TIR expression plasmid (SEQ ID NO: 1 as disclosed in WO 2019/236879, Pages 77-81; Paragraph) [0310]).
The cultures were supplemented with 1 mM NR at time of transfection to minimize toxicity from ARM-SAM-TIR overexpression. Forty-eight hours after transfection, cells were harvested, pelleted by centrifugation at 1,000 rpm (Sorvall ST 16R centrifuge, Thermo Fisher), and washed once with cold PBS (0.01 M phosphate buffered saline NaCl 0.138 M; KCl 0.0027 M; pH 7.4). The cells were resuspended in PBS with protease inhibitors (Complete™ protease inhibitor cocktail, Roche product #11873580001) and cell lysates were prepared by sonication (Branson Sonifer 450, output=3, 20 episodes of stroke). The lysates were centrifuged (12,000×g for 10 min at 4° C.) to remove cell debris and the supernatants (containing ARM-SAM-TIR protein) were stored at −80° C. for later use in the in vitro ARM-SAM-TIR NADase assay (see below). Protein concentration was determined by the Bicinchoninic (BCA) method and used to normalize lysate concentrations.
The enzymatic assay was performed in a 384-well polypropylene plate in Dulbecco's PBS buffer in a final assay volume of 20 μL. ARM-SAM-TIR lysate with a final concentration of 5 μg/mL was pre-incubated with the respective compound at 1% DMSO final assay concentration over 2 hrs. at room temperature. The reaction was initiated by addition of 5 μM final assay concentration of NAD+ as substrate. After a 2 hrs. ambient temperature incubation, the reaction was terminated with 40 μL of stop solution of 7.5% trichloroacetic acid in acetonitrile. The NAD+ and ADPR concentrations were analyzed by a RapidFire High Throughput Mass Spectrometry System (Agilent Technologies, Santa Clara, CA) using an API4000 triple quadrupole mass spectrometer (AB Sciex Framingham, MA).
Compounds having an activity designated as “A” provided an IC50<50 nM; compounds having an activity designated as “B” provided an IC50 51-100 nM; compounds having an activity designated as “C” provided an IC50 101-500 nM; compounds having an activity designated as “D” provided an IC50 501-1000 nM; compounds having an activity designated as “E” provided an IC50>1000 nM.

As a reminder, the pIC50 is the negative decadic logarithm of the IC50, by convention in mol/L. Turning to `O=C1NCN(C(=O)CCc2cnc(Cl)c(F)c2)c2[nH]nc(-c3ccncc3)c21` [Example 27, 7-(3-(6-Chloro-5-fluoropyridin-3-y1)propanoyl)-3-(pyridin-4-y1)-1,5,6,7-tetrahydro-4H-pyrazolo[3,4-d]pyrimidin-4-one], the pIC50 is under 6.00. Consider `O=C1NCN(C(=O)CCc2ccc(Cl)nc2)c2[nH]nc(-c3ccncc3)c21` [Example 28, 7-(3-(6-Chloropyridin-3-yl)propanoyl)-3-(pyridin-4-yl)-1,5,6,7-tetrahydro-4H-pyrazolo[3,4-d]pyrimidin-4-one], for which the negative-log IC50 (pIC50) is under 6.00.
